Where two headings read alike, the source gives them in different places.
Key:
[1] = test system: kinetoplastids (T. brucei brucei and T. brucei rhodesiense); design: method as in MMV Pathogen Box supporting information; details: against kinetoplastids; ref MMV Pathogen Box supporting information; read-out: Reported IC50; cited from earlier work
Vero cells = test: cytotoxicity against Vero cells (resazurin viability assay); details: read-out: CC50 Vero; Table 2
Experimental: (§1) The resulting pellet was resuspended and counted in a Neubauer chamber in the presence of trypan blue to exclude nonviable cells colored in blue. Once the cell load was estimated, they were either used for the next passage in a new flask or processed for the cytotoxicity assay.
(§2) Briefly, Vero cells at a density of 10^4 cells per well were plated in 100 µL of complete DMEM and incubated overnight to allow cell attachment. Plates were then controlled under an inverted fluorescence microscope (Lumascope LS520) to ensure adherence, sterility and cell integrity. Thereafter, culture medium from each well was carefully emptied, and plates were filled with 90 µL of fresh complete medium followed by the addition of 10 µL of serial 5-fold dilutions of compound solutions. […] Fluorescence was then read using a Magelan Infinite M200 fluorescence multiwell plate reader (Tecan) with excitation and emission wavelengths of 530 and 590 nm, respectively. The percentage of cell viability was calculated from readouts, and the median cytotoxic concentration (CC50) for each compound was deduced from concentration–response curves using GraphPad Prism 8.0 software as described above. Selectivity indexes were then determined for each test substance as follows: SI = CC50(Vero cells)/IC50(T. brucei brucei).

[2] = test system: bloodstream forms of Trypanosoma brucei brucei; test: resazurin-based antitrypanosomal inhibition assay; assay type: cell-based; details: for pIC50 T. b. b.: Table 2
Experimental: Parasites were axenically cultivated in sterile vented flasks containing complete Hirumi’s modified Iscove’s medium 9 (HMI-9) [500 mL IMDM (Iscove’s modified Dulbecco’s medium) (Gibco, Waltham, MA, USA) supplemented with 10% (v/v) heat-inactivated fetal bovine serum (HIFBS) (Sigma Aldrich), 10% (v/v) serum plus (Sigma Aldrich), HMI-9 supplement (1 mM hypoxanthine, 0.16 mM thymidine, 50 µM bathocuproine disulfonic acid, 1.5 mM cysteine, 1.25 Mm pyruvic acid, 0.2 mM 2-mercaptoethanol (Sigma Aldrich)), and 1% (v/v) penicillin–streptomycin (Sigma Aldrich) and incubated at 37 °C in a 5% CO2 atmosphere.
The in vitro inhibitory potency of the 400 MMVPB compounds against bloodstream forms of Trypanosoma brucei brucei was evaluated using the resazurin-based inhibition assay as previously described. Briefly, parasites at their mid-logarithmic growth phase were counted, and the cell density was adjusted with fresh complete HMI-9 medium to 2 × 10^5 trypanosomes per mL. Then, 90 µL of parasite suspension was then distributed into the wells of 96-well flat-bottomed plates containing 10 µL of compounds for a final test concentration of 10 µM. […] Each assay plate was set up in duplicate and repeated two times. The percent parasite inhibition was determined for each compound based on fluorescence readouts relative to the mean fluorescence of negative control wells.
y = 100/[1+ 10^(logIC50/99-x)H], where H is the hill coefficient or slope factor [60].

in vitro = details: African green monkey
Experimental: as §1, §2

[3] = test system: bloodstream form of Trypanosoma brucei brucei; test: parasite-killing kinetics and cidal or static effect; assay type: cell-based; details: IC90 and IC99; removal at 4 h (10) or 24 h (7), subculture in inhibitor-free medium
Experimental: Thus, they were selected, and their effect at various concentrations was assessed on the proliferation rate of the bloodstream form of Trypanosoma brucei brucei using microscopic cell count. […] After specified exposure time intervals (0, 4, 8, 12, 24, 30, 36, 48, 60, 72 h), the content of each well was harvested and counted on a Neubauer hemacytometer to determine the number of mobile parasites. The obtained values were used to plot the growth curves as parasite density (cells/mL) versus incubation time using GraphPad Prism 8.0 software.
Therefore, the ability of parasites to recover post exposure to inhibitors 10 and 7 was further evaluated. […] After that, the cells were washed three times with fresh complete medium by centrifugation at 2500 rpm for 7 min. Cell pellets were thereafter resuspended in fresh complete culture medium in a 24-well plate and subcultured under the same conditions for 68 h for compound 10 and 48 h for compound 7 to achieve the complete parasite growth pattern. Thereafter, cells were enumerated using the Neubauer cell counter at each time point. The assay was performed in duplicate, and the mean cell counts were plotted […] against time using GraphPad Prism 8.0 to assess the cidal or static effect of inhibitors.

[4] = ferric ion reducing antioxidant power (FRAP); details: Fe^3+-reducing activity
Experimental: Iron is one of the vital elements for all parasites, including trypanosomes, as it plays a key role in pathogenesis and the host immune response. Therefore, iron bioavailability reducing agents to the parasite could be potential candidates for drug development against trypanosomiasis. To this end, we determined the capacity of the test compounds to reduce iron from ferric to ferrous status using the method described by Benzie et al.. Briefly, 25 µL of each compound (7 and 10) was added to 25 µL of a solution of Fe^3+ prepared at 1.2 mg/mL in distilled water in a 96-well microplate. The plate was incubated for 15 min at room temperature in darkness, after which 50 µL of ortho-phenanthroline (0.2% in methanol) was added to achieve final compound concentrations ranging from 400 µM to 0.19 µM. Plates were reincubated for 15 min, and the absorbance was measured at 510 nm. Ascorbic acid was used as a positive control and tested at concentrations ranging from 100 to 0.048 μg/mL. The median reducing concentration (RC50) values of compounds were determined through sigmoidal concentration–response curves using GraphPad Prism version 8.0 software.

[5] = Table 2, MMVPB compounds with known anti-kinetoplastid activity, read-out: IC50 ± SD T. b. b.
[6] = Trypanosoma brucei, Table 1, reference drugs included in MMVPB, read-out: IC50 ± SD T. b. b.
[7] = Trypanosoma brucei, Table 1, negative log of IC50 in molar, read-out: pIC50 T. b. b. (converted)

SMILES | IC50 [1] [nM] | CC50 (Vero cells) [nM] | IC50 [2, 5] [nM] | pIC50 T. b. b. ([2]; negative log of IC50 in molar) | CC50 at 48 h (in vitro) [nM] | IC50 [2, 6] [nM] | IC50 [2, 7] [nM] | cidal or static effect after inhibitor removal [3] | IC50 ([2]; Trypanosoma brucei, Table 4, negative log of IC50 in molar, read-out: pIC50 T. b. b. (converted)) [nM] | median reducing concentration (RC50) [4] [µM]
CNC(=O)C1Cc2ccccc2N1C(=O)Cc1ccc(F)cc1 (centres unmarked) [MMV188296] | 490 | > 100000 | 1010 ± 250 | 5.99 | – | – | – | – | – | –
O=C(Nc1ccc2c(c1)B(O)OC2)c1ccccc1C(F)(F)F [MMV652003] | 150 | > 100000 | 60 ± 40 | 7.22 | – | – | – | – | – | –
Cc1nc(-c2ccccn2)nc(N2CCC(Cc3ccccc3)C2)c1Cl (centres unmarked) [MMV659004] | 6600 | > 100000 | 1900 ± 3 | 5.72 | – | – | – | – | – | –
COc1ccc(C(=N)N)cc1-c1cn(-c2ccc(C(=N)N)cc2)nn1 [MMV675998] | 250 | > 100000 | 340 ± 30 | 6.47 | – | – | – | – | – | –
CO[C@@H](C(=O)N1Cc2[nH]nc(NC(=O)c3ccc(N4CCN(C)CC4)cc3)c2C1)c1ccccc1 [MMV676600] | 1020 | > 100000 | 650 ± 7 | 6.18 | – | – | – | – | – | –
Cc1ncc(-c2ccnc(Nc3ccc(S(C)(=O)=O)cc3)n2)n1C(C)C [MMV676604] | 260 | 8300 ± 1200 | 36 ± 1 | 7.44 | – | – | – | – | – | –
c1ccc(Oc2ccc(-c3cc(N4CCNCC4)[nH]n3)cc2)cc1 [MMV687706] | 990 | 41000 ± 6500 | 1900 ± 6 | 5.72 | – | – | – | – | – | –
N=C(N)Nc1ccc(-c2ccc(-c3ccc(N=C(N)N)c(Cl)c3)o2)cc1Cl [MMV688271] | 600 | > 100000 | 1070 ± 160 | 5.97 | – | – | – | – | – | –
NCCN(C(=O)c1ccc(Cl)cc1Cl)c1ccc(OCc2ccc(Cl)cc2)cc1 [MMV688371] | < 130 | 7500 ± 100 | 1600 ± 100 | 5.79 | – | – | – | – | – | –
CC1=Nc2ccc(Cl)cc2C(c2ccccc2)N1CCNC(=O)CN(C)C (centres unmarked) [MMV688410] | 3800 | – | 8500 ± 100 | 5.07 | – | – | – | – | – | –
CCCCN(CCCC)c1c(C#N)cc(S(=O)(=O)Nc2ccccc2)cc1C#N [MMV688467] | 300 | > 100000 | 3100 ± 500 | 5.50 | – | – | – | – | – | –
N=C(N)c1ccc(-c2cc(-c3ccccc3)on2)cc1 [MMV688514] | 4060 | 17000 ± 2500 | 3200 ± 300 | 5.49 | – | – | – | – | – | –
O=C(Cn1ccnc1[N+](=O)[O-])NCc1ccccc1 [MMV688773, Benznidazole, reference compound] | – | – | – | – | > 100000 | 300 ± 10 | 302 | – | – | –
Cc1cccnc1NC(=O)c1cccc(OCc2c(C)noc2C)c1 [MMV688793] | 2070 | > 100000 | 360 ± 40 | 6.44 | – | – | – | – | – | –
O=C(NCCc1ccn(-c2ccccc2)n1)C1CCCCC1 [MMV688795] | 150 | > 100000 | 350 ± 20 | 6.45 | – | – | – | – | – | –
O=C(NCc1nnc2n1CCCCC2)c1ccc(-c2ccc(F)cc2)o1 [MMV688796] | 100 | > 100000 | 30 ± 10 | 7.52 | – | – | – | – | – | –
CC1CCCCN1C(=O)NCCc1coc(-c2ccc(F)cc2)n1 (centres unmarked) [MMV688797] | 130 | > 100000 | 60 ± 20 | 7.22 | – | – | – | – | – | –
CS(=O)(=O)c1ccccc1C(=O)N(Cc1ccccc1)c1ccccc1 [MMV688798] | 555 | – | 300 ± 25 | 6.52 | – | – | – | – | – | –
Cc1ccc(S(=O)(=O)Nc2ccc(CN3CCN(C(=O)c4cccc(C#N)c4)CC3)cc2)cc1 [MMV689028] | 140 | > 100000 | – | – | – | – | – | – | – | –
COc1ccc(S(=O)(=O)Nc2ccc(CN3CCN(C(=O)c4cccc(C#N)c4)CC3)cc2)cc1 [MMV689029] | 500 | > 100000 | 1300 ± 600 | 5.88 | – | – | – | – | – | –
Clc1ccc(CN2CCN(C3=NCCN3)CC2)cc1Cl [MMV689060] | 31600 | – | 2400 ± 60 | 5.61 | – | – | – | – | – | –
CC(=O)Nc1ccc(-c2noc(CC3CCCN(Cc4cccc(F)c4C)C3)n2)cc1 (centres unmarked) [MMV689061] | 32300 | > 100000 | 1900 ± 100 | 5.72 | – | – | – | – | – | –
COc1ccc(C2=NN(C3CCCCCC3)C(=O)[C@@H]3CC=CC[C@H]23)cc1OCCCCOc1ccc(-c2nn[nH]n2)cc1 [MMV690027] | 20 | > 100000 | 2800 ± 70 | 5.55 | – | – | – | – | – | –
N=C(N)c1ccc(OCCCCCOc2ccc(C(=N)N)cc2)cc1 [Pentamidine, reference compound] | – | – | – | – | > 100000 | 2 ± 0.3 | 2 | static profile | 2.24 | –
O=C1O[C@H]([C@@H](O)CO)C(O)=C1O [ascorbic acid, reference compound] | – | – | – | – | – | – | – | – | – | 165

Source: article PMC9571290, “Preliminary Structure–Activity Relationship Study of the MMV Pathogen Box Compound MMV675968 (2,4-Diaminoquinazoline) Unveils Novel Inhibitors of Trypanosoma brucei brucei” (Molecules, 2022)
